Patent US7842856B2, “Herbicide resistance gene, compositions and methods” (The Board of Trustees of the University of Illinois, priority 2005, dated 2010)

Legend:
[1] = test system: A. tuberculatus S (susceptible) parent; experiment: Herbicide dose-response on whole plants, S parent; format: in vivo, Amaranthus tuberculatus (waterhemp); conditions: S line
[2] = test system: Arabidopsis Columbia-0 (untransformed control); experiment: Seed germination on herbicide-containing medium, untransformed control; format: in vivo, Arabidopsis thaliana
Method: (§1) These T1 seeds were put into 0.8% agarose and plated onto MS media with 1% sucrose, Cefotaxmine (500 ug/mL) and benomyl (2 ug/mL). For selection of transformants, these contained either 100 nM Pursuit (imazethapyr), 70 nM Cobra (lactofen) or 125 nM Cobra. Arabidopsis ecotype Columbia-0 (Co10) was also plated as a control on all types of plates and the imidazolinone tolerant mutant csr1-2 was plated on Pursuit plates as a positive control. The seeds were stratified on the plates for three days at 4° C.
(§2) The plates were then incubated in a Percival Scientific (Perry, Iowa) growth chamber at 21-22° C. and 15 hours of light for six days and scored for viable seedlings on the selective plates.
(§3) The numbers of seeds were the raw counts of actual seeds on the selection plates. The numbers of seedlings were the number of green seedlings found on each plate, indicative of resistance to the selective agent (lactofen or imazethapyr). If there were no seedlings, there were no resistant plants. Only the “resistant” forms of PPX2L conferred lactofen tolerance, confirming that the isolated PPX2L coding sequence from the herbicide resistant waterhemp was sufficient to confer the PPO-inhibiting herbicide resistance phenotype on transgenic plants into which the plant expressible sequence was introduced. Plants obtained from the imazethapyr selection indicated the presence of transformed seeds with the sensitive form of PPX2L. Without wishing to be bound by any particular theory, the single seedling on transformation set 5 is believed to have been a stray resistant transformant.

[3] = test system: Arabidopsis T1 seeds, PPX2L Susceptible plasmid; experiment: T1 seed germination on herbicide-containing medium, PPX2L Susceptible plasmid; format: in vivo, Arabidopsis thaliana; conditions: for Number of Germinated Seedlings on Imazethapyr: approximately 1000 seeds
Method: (§4) Reverse transcription PCR (RT-PCR) products from resistant and sensitive biotypes were used as template for cloning the resistant and sensitive genes through PCR amplifications. These amplifications were performed using the ligation independent cloning (LIC) adapted oligonucleotide primers specific to PPX2L, P1 and P2, and cloned into the LIC site of a plant transformation vector, using techniques known to those skilled in the art. These primers used in these experiments were as follows: P1, […], SEQ ID NO:49; P2, […], SEQ ID NO:50; P3, […], SEQ ID NO:51; P4, […], SEQ ID NO:52; P5, […], SEQ ID NO:53; and P6, […], SEQ ID NO:54. These plant transformation vectors contained an imidazolinone tolerant Arabidopsis AHAS large subunit gene under the control of the actin promoter and octopine synthase terminator, which allowed selection on Pursuit (imazethapyr) for all transformants, especially for selection of lactofen […] transformants. For expression of the resistant and sensitive genes in Arabidopsis, the coding sequences for each resistant or sensitive gene were inserted after the parsley ubiquitin promoter and before the nopaline synthase terminator. Several clones each of susceptible and resistant PPX2L were obtained from different biotype isolates and each was sequenced.
(§5) Three vector plasmids were constructed: VC-MBW101-1, containing the susceptible version of the PPX2L gene (SEQ ID NO:47); VC-MBW102-1, containing the resistant version of the PPX2L gene (SEQ ID NO:25); and VC-MBW103-1, containing the SRS version of the PPX2L gene (SEQ ID NO:45); All three of these plasmids were transformed into Agrobacterium tumefaciens. as follows:
(§6) For the transformation, 6-week-old Arabidopsis plants, which had just started flowering were immersed for 10 seconds into the above-described agrobacterial suspension which had previously been treated with 10 μl Silwett L77 (Crompton S. A., Osi Specialties, CH). The method is described in Clough and Bent. 1998. Plant J. 16:735-743.
(§7) These T1 generation seeds, which represented a collection of a few transformed seeds in a population of untransformed seeds, were sterilized by liquid sterilization (rinsing in a solution of 400 mL of ddH2O+100 mL of bleach+250 uL of 20% SDS, followed by rinsing in sterile distilled water).
as §1, §2, §3

[4] = test system: Arabidopsis T1 seeds, PPX2L Resistant plasmid; experiment: T1 seed germination on herbicide-containing medium, PPX2L Resistant plasmid; format: in vivo, Arabidopsis thaliana; conditions: for Number of Germinated Seedlings on Imazethapyr: approximately 1000 seeds
Method: as §4, §5, §6, §7, §1, §2, §3

[5] = test system: Arabidopsis T1 seeds, PPX2L "SRS" plasmid; experiment: T1 seed germination on herbicide-containing medium, PPX2L SRS plasmid; format: in vivo, Arabidopsis thaliana; conditions: for Number of Germinated Seedlings on Imazethapyr: approximately 1000 seeds
Method: as §4
In addition, a chimeric “SRS” gene (see SEQ ID NO:45), which has the 5′ end of the susceptible coding sequence up to the unique XhoI site, the internal XhoI to DraIII fragment of the resistant coding sequence containing the resistance mutation, and the 3′ end of the susceptible from the unique DraIII site to the stop codon, was produced by amplifying sensitive RT-PCR template with P1 and P3 as well as with P6 and P2. Resistant template was also amplified with P4 and P5. These amplicons were digested with XhoI and DraIII and purified, then ligated. The ligation reaction was cloned into the LIC site of the plant transformation vector, as above.
as §5, §6, §7, §1, §2
The numbers of seeds were the raw counts of actual seeds on the selection plates. The numbers of seedlings were the number of green seedlings found on each plate, indicative of resistance to the selective agent (lactofen or imazethapyr). If there were no seedlings, there were no resistant plants. […]

O=C(O)c1cc(Oc2ccc(C(F)(F)F)cc2Cl)ccc1[N+](=O)[O-] [Acifluorfen, 5-{2-chloro-4-(trifluoromethyl)phenoxy}-2-nitrobezoic acid]
GR50 (growth reduction by 50%) S ([1]; 10 DAT): 1.6 g ai ha^−1

CCOC(=O)C(C)OC(=O)c1cc(Oc2ccc(C(F)(F)F)cc2Cl)ccc1[N+](=O)[O-] (racemic) [Lactofen, (±)-2-ethoxy-1-methyl-2-oxoethyl 5-{2-chloro-4-(trifluoromethyl)phenoxy}-2-nitrobenzoate]
Calculated Number of Germinated Seedlings per 1000 Seeds for both rates of Lactofen [2]: 0
Number of Germinated Seedlings on 125 nM Lactofen ([2]; 600 seeds plated): 0
Number of Germinated Seedlings on 70 nM lactofen ([2]; 884 seeds plated, six days): 0
Calculated Number of Germinated Seedlings per 1000 Seeds for both rates of Lactofen ([3]; transformation set 4-291): 0
Number of Germinated Seedlings on 70 nM lactofen ([3]; transformation set 4-291, 500 seeds plated): 0
Number of Germinated Seedlings on 125 nM Lactofen ([3]; transformation set 4-291, 680 seeds plated): 0
Calculated Number of Germinated Seedlings per 1000 Seeds for both rates of Lactofen ([3]; transformation set 5): 1
Number of Germinated Seedlings on 70 nM lactofen ([3]; transformation set 5, 460 seeds plated): 1
Number of Germinated Seedlings on 125 nM Lactofen ([3]; transformation set 5, 764 seeds plated): 0
Calculated Number of Germinated Seedlings per 1000 Seeds for both rates of Lactofen ([4]; transformation set 1): 7
Number of Germinated Seedlings on 125 nM Lactofen ([4]; transformation set 1, 560 seeds plated): 4
Number of Germinated Seedlings on 70 nM lactofen ([4]; transformation set 1, 640 seeds plated): 4
Calculated Number of Germinated Seedlings per 1000 Seeds for both rates of Lactofen ([4]; transformation set 2): 3
Number of Germinated Seedlings on 125 nM Lactofen ([4]; transformation set 2, 1152 seeds plated): 4
Number of Germinated Seedlings on 70 nM lactofen ([4]; transformation set 2, 1276 seeds plated): 3
Calculated Number of Germinated Seedlings per 1000 Seeds for both rates of Lactofen ([4]; transformation set 3): 2
Number of Germinated Seedlings on 70 nM lactofen ([4]; transformation set 3, 980 seeds plated): 3
Number of Germinated Seedlings on 125 nM Lactofen ([4]; transformation set 3, 1664 seeds plated): 1
Calculated Number of Germinated Seedlings per 1000 Seeds for both rates of Lactofen ([5]; transformation set 4-390): 9
Number of Germinated Seedlings on 125 nM Lactofen ([5]; transformation set 4-390, 1160 seeds plated): 6
Number of Germinated Seedlings on 70 nM lactofen ([5]; transformation set 4-390, 1176 seeds plated): 14
Calculated Number of Germinated Seedlings per 1000 Seeds for both rates of Lactofen ([5]; transformation set 4-414): 5
Number of Germinated Seedlings on 125 nM Lactofen ([5]; transformation set 4-414, 880 seeds plated): 2
Number of Germinated Seedlings on 70 nM lactofen ([5]; transformation set 4-414, 1036 seeds plated): 7
GR50 (growth reduction by 50%) S ([1]; 10 DAT): 0.2 g ai ha^−1
GR50 (growth reduction by 50%) S ([1]; 15 DAT): 0.4 g ai ha^−1

CCc1cnc(C2=NC(C)(C(C)C)C(=O)N2)c(C(=O)O)c1 (centres unmarked) [Imazethapyr]
Number of Germinated Seedlings on Imazethapyr ([2]; 100 nM Pursuit, approximately 1000 seeds): 0
Number of Germinated Seedlings on Imazethapyr ([3]; transformation set 4-291, 100 nM Pursuit): 4
Number of Germinated Seedlings on Imazethapyr ([3]; transformation set 5, 100 nM Pursuit): 12
Number of Germinated Seedlings on Imazethapyr ([4]; transformation set 1, 100 nM Pursuit): 9
Number of Germinated Seedlings on Imazethapyr ([4]; transformation set 2, 100 nM Pursuit): 9
Number of Germinated Seedlings on Imazethapyr ([4]; transformation set 3, 100 nM Pursuit): 6
Number of Germinated Seedlings on Imazethapyr ([5]; transformation set 4-390, 100 nM Pursuit): 10
Number of Germinated Seedlings on Imazethapyr ([5]; transformation set 4-414, 100 nM Pursuit): 11
